In publication PMC8053042 (Cell chemical biology, 2020):

Target: T1, Doublecortin-like kinase 1 (DCLK1) (Homo sapiens, UniProt O15075)
T1 sequence (O15075 390-647 limits assumed): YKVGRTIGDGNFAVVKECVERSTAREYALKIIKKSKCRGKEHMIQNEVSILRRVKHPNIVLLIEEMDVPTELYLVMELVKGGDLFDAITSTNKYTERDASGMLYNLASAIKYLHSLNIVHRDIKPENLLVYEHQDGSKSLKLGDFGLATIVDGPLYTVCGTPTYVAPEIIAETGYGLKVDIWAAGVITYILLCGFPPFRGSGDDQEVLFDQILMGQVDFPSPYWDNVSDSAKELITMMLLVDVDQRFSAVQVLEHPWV
Test: peptide substrate mobility shift kinase assay with purified DCLK1 WT
Type: biochemical

## COc1cc(N2CCN(C)CC2)ccc1Nc1ncc2c(n1)N(C)c1ccccc1C(=O)N2CC(F)(F)F [DCLK1-IN-1]
  IC50: 55 nM
